# Patent US20050142192A1, “Oral administration of [2-(8,9-dioxo-2,6-diazabicyclo[5.2.0]non-1(7)-en-2-yl)alkyl] phosphonic acid and derivatives” (Wyeth, priority 2003, published 2005)
# Read-outs that look alike come from different tables or passages of the source.
# What was measured:
# [1] = ascending single-dose pharmacokinetic study in healthy subjects; assay type: in vivo; conditions: human, plasma, intravenous, 100 mg, 100 mg 1-hour, infusion, mean ± SD
# [2] = animal absorption study, oral bioavailability in rats; conditions: rat, in vivo, 100 mg/kg
# [3] = ascending single-dose pharmacokinetic study in healthy subjects; assay type: in vivo, human; conditions: for AUC: t = 0 to ∞; for CL/F: read-out: mean oral-dose clearance (C1/F) (converted)
# Experimental: A study was conducted as an ascending single-dose tolerance study with fasting administration of 500, 1000, 2000, and 4000 mg oral doses. In each cohort, 8 subjects received either placebo (2 subjects) or the prescribed dose of 2-(8,9-dioxo-2,6-diazabicyclo[5.2.0]non-1(7)-en-2-yl)ethyl]phosphonic acid (6 subjects). Subjects in the fasting 1000-mg cohort were crossed over to receive a 1000-mg postprandial dose in study period 2. Additionally, the 2000-mg dose level was repeated in a cohort of elderly subjects.
# [4] = apparent n-octanol/water partition coefficient
# [5] = ascending multiple-dose pharmacokinetic study in healthy subjects; assay type: in vivo; conditions: human, plasma, po, mean ± SD; for half-life: read-out: T½ (converted)
# Experimental: A study was conducted as an ascending multiple-dose tolerance study of 2-(8,9-dioxo-2,6-diazabicyclo[5.2.0]non-1(7)-en-2-yl)ethyl]phosphonic acid with administration of 200, 400, 800, and 1600 mg oral doses in healthy subjects over a 14-day period.
# Caco-2 cell = Caco-2 cell permeability
# [6] = pH range of 4 to 8
# [7] = animal absorption study, oral bioavailability in monkeys; conditions: monkey, in vivo, 100 mg/kg
# [8] = 1000 mg, after standardized high-fat, high-calorie meal versus fasting
# [9] = human, plasma, po, 500 mg, 500 mg Oral, fasting, single administration, healthy subjects, mean ± SD
# [10] = human, plasma, po, 1000 mg, 1000 mg Oral, fasting, single administration, healthy subjects, mean ± SD
# [11] = human, plasma, po, 1000 mg, 1000 mg Oral, fed (high-fat, high-calorie meal), single administration, healthy subjects, mean ± SD
# [12] = human, plasma, po, 2000 mg, 2000 mg Oral, fasting (elderly), single administration, mean ± SD
# [13] = human, plasma, po, 2000 mg, 2000 mg Oral, fasting, single administration, healthy adult subjects, mean ± SD
# [14] = human, plasma, po, 4000 mg, 4000 mg Oral, fasting, single administration, healthy subjects, mean ± SD
# [15] = 200 mg, Multiple dose administration (day 14), 200 mg q 12 h Oral, fed
# [16] = 200 mg, Single dose administration, 200 mg Oral, fasting
# [17] = 400 mg, Multiple dose administration (day 14), 400 mg q 12 h Oral, fasting
# [18] = 400 mg, Single dose administration, 400 mg Oral, fasting
# [19] = 800 mg, Multiple dose administration (day 14), 800 mg q 12 h Oral, fasting
# [20] = 800 mg, Single dose administration, 800 mg Oral, fasting
# [21] = 1600 mg, Multiple dose administration (day 14), 1600 mg q 12 h Oral, fasting
# [22] = 1600 mg, Single dose administration, 1600 mg Oral, fasting
smiles,measurement,setting,value
"O=c1c2c(c1=O)N(CCP(=O)(O)O)CCCN2 [[2-(8,9-dioxo-2,6-diazabicyclo[5.2.0]non-1(7)-en-2-yl)ethyl]phosphonic acid]",Cmax,[1],4010 ± 512 ng/mL
same,AUC,[1]; t = 0 to ∞,10200 ± 1720 ng·h/mL
same,bioavailability,[2],~1%
same,lowering of mean Cmax by food,[3]; [8],67%
same,reduction of mean AUC by food,[3]; [8],57%
same,"mean oral-dose clearance (C1/F), lower in elderly than in healthy adult subjects","[3]; 2000 mg, fasting, single-dose",approximately 10%
same,Tmax,"[3]; human, plasma, intravenous, 100 mg, 100 mg 1-hour, infusion, healthy subjects, mean ± SD",0.95 ± 0.11 h
same,half-life,"[3]; human, plasma, intravenous, 100 mg, 100 mg 1-hour, infusion, healthy subjects, mean ± SD, read-out: T½ (converted)",8.3 ± 8.8 h
same,Cmax,[3]; [9],320 ± 63 ng/mL
same,Tmax,[3]; [9],1.9 ± 0.7 h
same,half-life,"[3]; human, plasma, po, 500 mg, 500 mg Oral, fasting, single administration, healthy subjects, mean ± SD, read-out: T½ (converted)",6.7 ± 6.4 h
same,AUC,[3]; [9],2140 ± 542 ng·h/mL
same,Cmax,[3]; [10],1180 ng/mL
same,Tmax,[3]; [10],0.88 h
same,half-life,"[3]; human, plasma, po, 1000 mg, 1000 mg Oral, fasting, single administration, healthy subjects, mean ± SD, read-out: T½ (converted)",14.6 ± 9.3 h
same,AUC,[3]; [10],5130 ng·h/mL
same,Cmax,[3]; [11],392 ng/mL
same,Tmax,[3]; [11],2.92 h
same,half-life,"[3]; human, plasma, po, 1000 mg, 1000 mg Oral, fed (high-fat, high-calorie meal), single administration, healthy subjects, mean ± SD, read-out: T½ (converted)",16 ± 10 h
same,AUC,[3]; [11],2210 ng·h/mL
same,Cmax,[3]; [12],1610 ± 628 ng/mL
same,Tmax,[3]; [12],1.25 ± 0.61 h
same,half-life,"[3]; human, plasma, po, 2000 mg, 2000 mg Oral, fasting (elderly), single administration, mean ± SD, read-out: T½ (converted)",14.1 ± 11.1 h
same,AUC,[3]; [12],8890 ng·h/mL
same,Cmax,[3]; [13],1790 ± 1360 ng/mL
same,Tmax,[3]; [13],1.42 ± 0.96 h
same,half-life,"[3]; human, plasma, po, 2000 mg, 2000 mg Oral, fasting, single administration, healthy adult subjects, mean ± SD, read-out: T½ (converted)",6.4 ± 2 h
same,AUC,[3]; [13],7640 ng·h/mL
same,CL/F,"[3]; human, plasma, po, 2000 mg, elderly subjects, 2000 mg, fasting, single-dose",52.3 mL/min/kg
same,CL/F,"[3]; human, plasma, po, 2000 mg, healthy adult subjects, 2000 mg, fasting, single-dose",58.3 mL/min/kg
same,Cmax,[3]; [14],1490 ± 436 ng/mL
same,Tmax,[3]; [14],2.6 ± 1.08 h
same,half-life,"[3]; human, plasma, po, 4000 mg, 4000 mg Oral, fasting, single administration, healthy subjects, mean ± SD, read-out: T½ (converted)",9.1 ± 4.6 h
same,AUC,[3]; [14],8980 ± 1980 ng·h/mL
same,half-life,"[3]; human, plasma, po, all cohorts, oral, fasting, estimates not always reliable, read-out: mean t1/2",6 to 16 h
same,bioavailability,"[3]; human, plasma, subjects in the first cohort (500 mg oral, 100 mg infusion), read-out: mean absolute bioavailability",4.3%
same,logP,[4],-1.37
same,Cmax,[5]; [15],153 ± 75 ng/mL
same,Tmax,[5]; [15],1.2 ± 0.3 h
same,half-life,[5]; [15],6.6 ± 3.9 h
same,AUC,"[5]; 200 mg, Multiple dose administration (day 14), 200 mg q 12 h Oral, fed, t = 0 to 12 hours (tau)",817 ± 265 ng·h/mL
same,Cmax,[5]; [16],172 ± 90 ng/mL
same,Tmax,[5]; [16],1.3 ± 0.5 h
same,half-life,[5]; [16],3.5 ± 0.6 h
same,AUC,"[5]; 200 mg, Single dose administration, 200 mg Oral, fasting, t = 0 to ∞",699 ± 201 ng·h/mL
same,Cmax,[5]; [17],398 ± 209 ng/mL
same,Tmax,[5]; [17],1.6 ± 1.3 h
same,half-life,[5]; [17],11.9 ± 10.4 h
same,AUC,"[5]; 400 mg, Multiple dose administration (day 14), 400 mg q 12 h Oral, fasting, t = 0 to 12 hours (tau)",1810 ± 747 ng·h/mL
same,Cmax,[5]; [18],346 ± 282 ng/mL
same,Tmax,[5]; [18],2 ± 1.6 h
same,half-life,[5]; [18],4.5 ± 1.2 h
same,AUC,"[5]; 400 mg, Single dose administration, 400 mg Oral, fasting, t = 0 to ∞",1490 ± 371 ng·h/mL
same,Cmax,[5]; [19],436 ± 151 ng/mL
same,Tmax,[5]; [19],1.4 ± 0.6 h
same,half-life,[5]; [19],16.9 ± 8.8 h
same,AUC,"[5]; 800 mg, Multiple dose administration (day 14), 800 mg q 12 h Oral, fasting, t = 0 to 12 hours (tau)",2180 ± 644 ng·h/mL
same,Cmax,[5]; [20],715 ± 524 ng/mL
same,Tmax,[5]; [20],1.4 ± 0.7 h
same,half-life,[5]; [20],8.3 ± 1.3 h
same,AUC,"[5]; 800 mg, Single dose administration, 800 mg Oral, fasting, t = 0 to ∞",3190 ± 800 ng·h/mL
same,Cmax,[5]; [21],1510 ± 842 ng/mL
same,Tmax,[5]; [21],1.4 ± 1.3 h
same,half-life,[5]; [21],10.5 ± 6.6 h
same,AUC,"[5]; 1600 mg, Multiple dose administration (day 14), 1600 mg q 12 h Oral, fasting, t = 0 to 12 hours (tau)",4910 ± 1210 ng·h/mL
same,Cmax,[5]; [22],962 ± 592 ng/mL
same,Tmax,[5]; [22],1.3 ± 1.3 h
same,half-life,[5]; [22],6.9 ± 1.7 h
same,AUC,"[5]; 1600 mg, Single dose administration, 1600 mg Oral, fasting, t = 0 to ∞",4060 ± 1320 ng·h/mL
same,Caco-2 cell permeability,Caco-2 cell,poor
same,solubility,[6],very soluble
same,bioavailability,[7],~2.5%
